Reference: patent US20250207103A1, “CYTOCOMPATIBLE HYDROGELS AND METHODS OF MAKING AND USING THE SAME” (The Trustees of Indiana University, priority 2022, published 2025)

Tests used:
[1] = system: CAFs; test: effect of blebbistatin and Y-27632 on spreading of CAFs in viscoelastic hydrogels; type: cell-based, human; conditions: Y-27632: 10 μM; for F-actin polymerization in CAFs: blebbistatin: 40 μM, Day 15
Source text: (§1) To facilitate imaging, pancreatic cancer cells COLO-357 were stably transduced with mKate2, a red fluorescent protein (RFP), using INCUCYTE® Cytolight Lentivirus reagent, followed by puromycin selection. green fluorescent protein (GFP)-labelled human pancreatic cancer associated fibroblasts (1303-GFP-49-hT, or CAF) and RFP-labelled COLO-357 (PCC) were maintained in high glucose Dulbecco's modified eagle medium (DMEM, Gibco) containing 10% Fetal bovine serum (FBS, Corning) and 1% antibiotic-antimycotic (Gibco) at 37° C. with 5% CO2. Cells were trypsinized by 0.1% trypsin-ethylenediaminetetraacetic acid (trypsin-EDTA) (Gibco) for cell encapsulation. The cell density of CAF and PCC was kept at 1.6 million/mL (M/mL) and 400 thousand/mL (k/mL), respectively, in both single-encapsulated and co-encapsulated precursor solutions. The hydrogel precursor solution was similar to the aforementioned formulations, except that 3 wt % of GelSH was included to facilitate cell proliferation. Twenty-five μL precursor solution was cured under UV light (λ=365 nm, 5 mW/cm^2) in an opened 1 mL syringe for 2 minutes. The cell-laden hydrogels were then cultured in regular cell culture media. For hydrogels treated with myosin inhibitor blebbistatin (40 μM, Peprotech) and ROCK inhibitor Y-27632 (10 μM, AdipoGen), the treated culture media was replaced daily to ensure the efficacy of inhibitors.
The cell viability of CAF in hydrogels was evaluated by staining with ethidium homodimer 3. The morphology of CAF in hydrogels was analyzed using F-actin (rhodamine phalloidin 100 nM, Cytoskeleton) and 4′,6-diamidino-2-phenylindole (DAPI) (1:1000, Anaspec) stained images. In the co-encapsulated hydrogels, cells were stained using F-actin (Actin stain 670 phalloidin 200 nM, Cytoskeleton) and DAPI (1:1000). The confocal images (Olympus Fluoview FV100 laser scanning microscope) were z-stacked from 5 μm slices over 100 μm in total.

[2] = system: PCCs/CAFs; test: effect of blebbistatin and Y-27632 on PCCs/CAFs encapsulated in viscoelastic hydrogels; type: cell-based, human; conditions: blebbistatin: 40 μM, Y-27632: 10 μM, Day 15
Source text: as §1, with “The cell-laden hydrogels were then cultured in regular cell culture media. For hydrogels treated with myosin inhibitor blebbistatin (40 μM, Peprotech) and ROCK inhibitor Y-27632 (10 μM, AdipoGen), the treated culture media was replaced daily to ensure the efficacy of inhibitors.” left out
The cell viability of CAF in hydrogels was evaluated by staining with ethidium homodimer 3. The morphology of CAF in hydrogels was analyzed using F-actin (rhodamine phalloidin 100 nM, Cytoskeleton) and 4′,6-diamidino-2-phenylindole (DAPI) (1:1000, Anaspec) stained images. […]

Row | SMILES | cell morphology of CAFs [1] | F-actin polymerization in CAFs [1] | invasive phenotype of PCC cells in co-culture [2]
1 | C[C@@H](N)[C@H]1CC[C@H](C(=O)Nc2ccncc2)CC1 [Y-27632] | more obvious dendritic extensions of cells | disrupted F-actin polymerization | neither the addition of blebbistatin nor Y-27632 altered invasive phenotype
2 | Cc1ccc2c(c1)C(=O)C1(O)CCN(c3ccccc3)C1=N2 (centres unmarked) [blebbistatin] | – | disrupted F-actin polymerization | neither the addition of blebbistatin nor Y-27632 altered invasive phenotype
